Results as given in patent publication US20030013905A1, “Salts of cis-4-cyano-4[3(cyclopentyloxy)-4-methoxyphenyl]cyclohexane-1-carboxylic acid” (priority 2002, published 2003).
Counter-ions that a name gives are not always drawn.

Assay: Water uptake on exposure to air (Karl Fisher water content)
Assay type: physicochemical
Settings: recrystallized sodium salt 1(b), exposed to air at room temperature for 1 week; 2.9% before exposure; said to indicate fairly high hydroscopic nature

water content on Karl Fisher after exposure to air: 22.9%
SMILES: COc1ccc(C2(C#N)CCC(C(=O)O)CC2)cc1OC1CCCC1 (stereo not drawn) [Example 1, cis-4-cyano-4-[3-(cyclopentyloxy)-4-methoxyphenyl]cyclohexane-1-carboxylic acid sodium salt]
